Tested on: A875 NT cells
Assay: Wound healing cell motility assay, A875 NT
Format: cell-based, human
Conditions: for Wound area (Fold): A875 NT
Protocol: For wound healing assay, cells were grown until confluency and subjected to a wound across the cell mono-layer. Cells were then incubated with serum-free media either with DMSO or a small molecule (with or without 5 µM Q_VD_poH) and imaged at specific time-points. Cell migration is reflected as fold change in wound area over time.

Cc1cccc(-c2cncc(Nc3ccc(Br)c(Cl)c3Cl)n2)c1C [Np75-4A22]
Wound area (Fold) (1uM, 3 h, n3): 0.9416 Fold
Wound area (Fold) (1uM, 6 h, Mean): 0.905 Fold
Wound area (Fold) (1uM, 6 h, n1): 0.8734 Fold
Wound area (Fold) (1uM, 6 h, n2): 0.9482 Fold
Wound area (Fold) (1uM, 6 h, n3): 0.8944 Fold
Wound area (Fold) (1uM, 9 h, Mean): 0.855 Fold
Wound area (Fold) (1uM, 9 h, n1): 0.8188 Fold
Wound area (Fold) (1uM, 9 h, n2): 0.9061 Fold
Wound area (Fold) (1uM, 9 h, n3): 0.8389 Fold
Wound area (Fold) (1uM, 12 h, Mean): 0.827 Fold
Wound area (Fold) (1uM, 12 h, n1): 0.7941 Fold
Wound area (Fold) (1uM, 12 h, n2): 0.8768 Fold
Wound area (Fold) (1uM, 12 h, n3): 0.8105 Fold
Wound area (Fold) (1uM, 15 h, Mean): 0.795 Fold
Wound area (Fold) (1uM, 15 h, n1): 0.7522 Fold
Wound area (Fold) (1uM, 15 h, n2): 0.8472 Fold
Wound area (Fold) (1uM, 15 h, n3): 0.7844 Fold
Wound area (Fold) (1uM, 18 h, Mean): 0.773 Fold
Wound area (Fold) (1uM, 18 h, n1): 0.739 Fold
Wound area (Fold) (1uM, 18 h, n2): 0.8198 Fold
Wound area (Fold) (1uM, 18 h, n3): 0.7589 Fold
Wound area (Fold) (1uM, 21 h, Mean): 0.762 Fold
Wound area (Fold) (1uM, 21 h, n1): 0.7242 Fold
Wound area (Fold) (1uM, 21 h, n2): 0.8105 Fold
Wound area (Fold) (1uM, 21 h, n3): 0.7528 Fold
Wound area (Fold) (1uM, 24 h, Mean): 0.743 Fold
Wound area (Fold) (1uM, 24 h, n1): 0.7122 Fold
Wound area (Fold) (1uM, 24 h, n2): 0.7843 Fold
Wound area (Fold) (1uM, 24 h, n3): 0.7318 Fold
Wound area (Fold) (2uM, 0 h, Mean): 1.000 Fold
Wound area (Fold) (2uM, 0 h, n1): 1.119 Fold
Wound area (Fold) (2uM, 0 h, n2): 0.971 Fold
Wound area (Fold) (2uM, 0 h, n3): 0.910 Fold
Wound area (Fold) (2uM, 3 h, Mean): 0.939 Fold
Wound area (Fold) (2uM, 3 h, n1): 0.920 Fold
Wound area (Fold) (2uM, 3 h, n2): 0.934 Fold
Wound area (Fold) (2uM, 3 h, n3): 0.964 Fold
Wound area (Fold) (2uM, 6 h, Mean): 0.916 Fold
Wound area (Fold) (2uM, 6 h, n1): 0.889 Fold
Wound area (Fold) (2uM, 6 h, n2): 0.924 Fold
Wound area (Fold) (2uM, 6 h, n3): 0.935 Fold
Wound area (Fold) (2uM, 9 h, Mean): 0.883 Fold
Wound area (Fold) (2uM, 9 h, n1): 0.869 Fold
Wound area (Fold) (2uM, 9 h, n2): 0.889 Fold
Wound area (Fold) (2uM, 9 h, n3): 0.891 Fold
Wound area (Fold) (2uM, 12 h, Mean): 0.872 Fold
Wound area (Fold) (2uM, 12 h, n1): 0.845 Fold
Wound area (Fold) (2uM, 12 h, n2): 0.886 Fold
Wound area (Fold) (2uM, 12 h, n3): 0.885 Fold
Wound area (Fold) (2uM, 15 h, Mean): 0.864 Fold
Wound area (Fold) (2uM, 15 h, n1): 0.827 Fold
Wound area (Fold) (2uM, 15 h, n2): 0.886 Fold
Wound area (Fold) (2uM, 15 h, n3): 0.880 Fold
Wound area (Fold) (2uM, 18 h, Mean): 0.859 Fold
Wound area (Fold) (2uM, 18 h, n1): 0.819 Fold
Wound area (Fold) (2uM, 18 h, n2): 0.879 Fold
Wound area (Fold) (2uM, 18 h, n3): 0.879 Fold
Wound area (Fold) (2uM, 21 h, Mean): 0.856 Fold
Wound area (Fold) (2uM, 21 h, n1): 0.813 Fold
Wound area (Fold) (2uM, 21 h, n2): 0.878 Fold
Wound area (Fold) (2uM, 21 h, n3): 0.878 Fold
Wound area (Fold) (2uM, 24 h, Mean): 0.847 Fold
Wound area (Fold) (2uM, 24 h, n1): 0.809 Fold
Wound area (Fold) (2uM, 24 h, n2): 0.868 Fold
Wound area (Fold) (2uM, 24 h, n3): 0.864 Fold
wound healing assay (low micromolar and submicromolar concentrations): considerable inhibitory activity
